Measured values from patent US20230372313A1, “METHODS FOR REDUCING GLYCOSPHINGOLIPID CONCENTRATION IN BRAIN TISSUE AND METHODS OF TREATMENT OF NEURODEGENERATIVE DISEASES INVOLVING THE SAME” (GENZYME CORPORATION, priority 2020, published 2023).

Test system: glucosylceramide (GL-1)
Experiment: Plasma glucosylceramide (GL-1) levels, pharmacodynamics
Type: in vivo, human
Description: Analyses were based on all available data from participants who enrolled in part 1 of the trial and were randomised to receive either Compound 2 or placebo for up to 52 weeks for Japanese participants and 36 weeks for the ROW population. As part 1 was an exploratory, dose-escalation study, the sample size was not based on a statistical power calculation. Participants included in the primary safety analyses were those who were randomized and received at least one dose of Compound 2 or placebo. A data monitoring committee was responsible for overseeing the safety of patients and the risk/benefit ratio throughout the study. Duration of exposure to Compound 2 was different among the doses, as per the sequential cohort design, with the low- and high-dose cohorts commencing the study first and last, respectively. For pharmacokinetics, plasma parameters were calculated using noncompartmental methods, from plasma Compound 2 concentrations obtained after single dose administration. AUC0-24 and AUC0-48 were calculated using the trapezoidal method over a predefined time period of 24 hours or 48 hours, respectively. CLss/F was calculated using the following equation: CLss/F=Dose/AUCτ, where τ is the dosing interval. For pharmacodynamics, percent reduction of plasma or CSF GL-1 from baseline was calculated as (value−baseline)/baseline×100. Formal statistical testing was not conducted on MDS-UPDRS scale assessments.
In exploratory analyses, Compound 2 pharmacodynamics in plasma and CSF were assessed by mean percent change in GL-1 levels from baseline through Week 4. GL-1 levels were assessed in plasma and CSF samples collected at the day of randomisation and Week 4, with plasma GL-1 levels also assessed at Week 2.
Concentrations of GL-1 in plasma and CSF were determined using a liquid chromatography tandem mass spectrometry method. Secondary pharmacokinetic outcomes were evaluated over a 4-week period of once-daily Compound 2 dosing (Table 7).

[1] = Japan, High 15 mg once daily oral, n = 3
[2] = Japan, Low 4 mg once daily oral, n = 3
[3] = Japan, Mid 8 mg once daily oral, n = 3
[4] = ROW, High 15 mg once daily oral, n = 4
[5] = ROW, Low 4 mg once daily oral, n = 4
[6] = ROW, Mid 8 mg once daily oral, n = 5

Structure (SMILES): CC(C)(NC(=O)O[C@@H]1CN2CCC1CC2)c1csc(-c2ccc(F)cc2)n1 [Compound 2, (S)-quinuclidin-3-yl (2-(2-(4-fluorophenyl)thiazol-4-yl)propan-2-yl)carbamate]
- Plasma GL-1, Week 2 (mean) [1]: 1.231 µg/mL
- Plasma GL-1, Week 2, Change from baseline (%) (mean) [1]: −77.2%
- Plasma GL-1, Week 2, Change from baseline (mean) [1]: -4.285 µg/mL
- Plasma GL-1, Week 4 (mean) [1]: 1.149 µg/mL
- Plasma GL-1, Week 4, Change from baseline (%) (mean) [1]: −79.3%
- Plasma GL-1, Week 4, Change from baseline (mean) [1]: -4.368 µg/mL
- Plasma GL-1, Week 2 (mean) [2]: 2.230 µg/mL
- Plasma GL-1, Week 2, Change from baseline (%) (mean) [2]: −63.6%
- Plasma GL-1, Week 2, Change from baseline (mean) [2]: -3.797 µg/mL
- Plasma GL-1, Week 4 (mean) [2]: 2.097 µg/mL
- Plasma GL-1, Week 4, Change from baseline (%) (mean) [2]: −66.1%
- Plasma GL-1, Week 4, Change from baseline (mean) [2]: -3.930 µg/mL
- Plasma GL-1, Week 2 (mean) [3]: 1.507 µg/mL
- Plasma GL-1, Week 2, Change from baseline (%) (mean) [3]: −67.5%
- Plasma GL-1, Week 2, Change from baseline (mean) [3]: -3.133 µg/mL
- Plasma GL-1, Week 4 (mean) [3]: 1.340 µg/mL
- Plasma GL-1, Week 4, Change from baseline (%) (mean) [3]: −70.7%
- Plasma GL-1, Week 4, Change from baseline (mean) [3]: -3.300 µg/mL
- mean reduction in plasma GL-1 at Week 4 (Japanese cohort, high-dose 15 mg): 79.3%
- mean reduction in plasma GL-1 at Week 4 (Japanese cohort, low-dose 4 mg): 66.1%
- mean reduction in plasma GL-1 at Week 4 (Japanese cohort, medium-dose 8 mg): 70.7%
- mean reduction in plasma GL-1 at Week 4 (ROW participants, high-dose 15 mg): 77.7%
- mean reduction in plasma GL-1 at Week 4 (ROW participants, low-dose 4 mg): 59.0%
- mean reduction in plasma GL-1 at Week 4 (ROW participants, medium-dose 8 mg): 71.0%
- Plasma GL-1, Week 2 (mean) [4]: 1.469 µg/mL
- Plasma GL-1, Week 2, Change from baseline (%) (mean) [4]: −73.9%
- Plasma GL-1, Week 2, Change from baseline (mean) [4]: -4.119 µg/mL
- Plasma GL-1, Week 4 (mean) [4]: 1.253 µg/mL
- Plasma GL-1, Week 4, Change from baseline (%) (mean) [4]: −77.7%
- Plasma GL-1, Week 4, Change from baseline (mean) [4]: -4.335 µg/mL
- Plasma GL-1, Week 2 (mean) [5]: 2.340 µg/mL
- Plasma GL-1, Week 2, Change from baseline (%) (mean) [5]: −54.3%
- Plasma GL-1, Week 2, Change from baseline (mean) [5]: -2.815 µg/mL
- Plasma GL-1, Week 4 (mean) [5]: 2.093 µg/mL
- Plasma GL-1, Week 4, Change from baseline (%) (mean) [5]: −59.0%
- Plasma GL-1, Week 4, Change from baseline (mean) [5]: -3.063 µg/mL
- Plasma GL-1, Week 2 (mean) [6]: 1.644 µg/mL
- Plasma GL-1, Week 2, Change from baseline (%) (mean) [6]: −69.9%
- Plasma GL-1, Week 2, Change from baseline (mean) [6]: -3.830 µg/mL
- Plasma GL-1, Week 4 (mean) [6]: 1.578 µg/mL
- Plasma GL-1, Week 4, Change from baseline (%) (mean) [6]: −71.0%
- Plasma GL-1, Week 4, Change from baseline (mean) [6]: -3.896 µg/mL
- decrease of plasma GL-1 levels from baseline versus dose (over 4 weeks): dose-dependent manner
